Reference: patent US20220306623A1, “PYRIDYL OR PYRIMIDYL MTOR KINASE INHIBITORS” (GLAXOSMITHKLINE INTELLECTUAL PROPERTY DEVELOPMENT LIMITED, priority 2019, published 2022)
Like-named read-outs stand apart in the source and are kept apart here.

Test system: type I collagen deposition in primary lung fibroblasts derived from human tissue
Assay: High throughput type I collagen deposition (scar-in-a-jar) high content screening assay
Assay type: cell-based
Conditions: Primary lung fibroblast, 72 h, human pulmonary fibroblasts, 384-well, TGF-β 1 ng/ml 72 h
Procedure: Highthroughput, cellular type I collagen deposition was measured by adapting a published method; scar-in-a-jar (Chen et al., 2009) to primary lung fibroblasts derived from human tissue and combining with high content analysis to permit fluorescent quantification of collagen deposited in the extracellular matrix (ECM). The human biological samples were sourced ethically and their research use was in accordance with the terms of the informed consents.
Test compounds were dissolved in 100% DMSO to give 10 mM (stocks) and further diluted to give half log dilutions to generate an 11 point concentration response curve. 1 ul was transferred to 384-well plates (Greiner Group, Kremsmunster, Austria, Catalogue No Greine 781280r).
Human pulmonary fibroblasts were maintained in DMEM media (Gibco, Catalogue No 21969) supplemented with 4 mM L-glutamine (Gibco Catalogue No 25030-024) and 10% heat inactivated FBS (Gibco, Catalogue No 10099-141) at 37° C. in 10% CO2. Cells were harvested and resuspended at 4×10^6 cells/ml in a T175 cell culture flask (BD Falcom, Catalogue No: 353112) containing 50 mL of culture media. After 4 days 37° C. in 10% CO2, cells were harvested and seeded at 4000 cells per well ([…]) into 384-well plates (BD Falcon, Catalogue No 353962Greiner) in assay media (0.4% heat inactivated FBS, 4 mM L-glutamine). Plates were sealed with breathable seals (Sigma, Catalogue No. BEM-1). Assay plates were incubated for 72 h at 37° C. in 10% CO2.
Assay media was supplemented with 112.5 mg/ml Ficoll 70 (Sigma, Catalogue No F2878), 75 mg/ml Ficoll 400 (Sigma, Catalogue No F4375) and 50 µg/ml ascorbic acid (Sigma, Catalogue No A8960). 30 μL assay media were added to 1 l compound ([…] compound concentration in 1% DMSO). Diluted compounds (10 μL) were transferred to plates containing cells and incubated for 3 h at 37° C. in 10% CO2. Transforming growth factor (TGF)-β (R&D systems, Catalogue No 100-B/CF) was reconstituted to give 10 µg/mL (stock) and further diluted in assay media containing Ficoll and ascorbic acid (1 in 3333). TGF-β was added to cell plates (1 ng/ml final) and cells incubated for 72 h at 37° C. in 10% CO2.
Media was aspirated from cells and 30 µL/well 100% ice-cold methanol added and incubated at RT for 5 min to fix cells. Methanol was aspirated and cells washed with PBS (3×). To block and permeabilise, cells were incubated with PBS containing 1% BSA and 0.1% Triton X 100 for 20 min, followed by PBS wash (3×). Cells were incubated with mouse anti human type I collagen monoclonal antibody (Sigma, Catalogue No C2456) diluted 1:1000 in PBS for 24 h at 4° C. Cells were washed with PBS containing 0.1% Tween-20 (3×) and incubated with secondary alexa fluor 488 goat-anti-mouse antibody (Invitrogen, Catalogue No A11001, 1 in 500 in PBS) and Hoechst 33342 (Sigma, Catalogue No H21492), 1 in 1000 in PBS) for 1 h at RT, prior to washing with PBS containing 0.1% Tween (×4).
Type I collagen immunoreactivity was detected using the INCell 2000 Analyzer (GE Healthcare, INcell 2000) set to excitation and emission wavelengths for DAPI and FITC with laser focus and exposure adjusted to appropriate levels. Images were imported and analysed using Columbus software (Perkin Elmer) and computational algorithms to quantify “total collagen area” and “cell count”.
Data analysis was performed by determining 0/inhibition values for test compounds relative to the minimum (media only) and maximum responses (TGF-βstimulation) with non-linear regression analysis to determine IC50 values for test compounds.

[1] = total collagen area, read-out: mean pIC50, high throughput type I collagen deposition (scar-in-a-jar) (converted)
[2] = selected compounds, read-out: Scar in a jar (mean pIC50 values when tested in the scar-in-a-jar assay) (converted)

SMILES	IC50 [1]	IC50 [2]
CC[C@H]1COCCN1c1cc(C2(S(C)(=O)=O)CCOCC2)nc(-c2ccc3[nH]c(CO)cc3n2)n1 [Example 4, (5-{4-[(3S)-3-ethylmorpholin-4-yl]-6-(4-methanesulfonyloxan-4-yl)pyrimidin-2-yl}-1H-pyrrolo[3,2-b]pyridin-2-yl)methanol]	20 to 3160 nM	
CC[C@H]1COCC(=O)N1c1cc(C2(S(C)(=O)=O)CCOCC2)cc(-c2ccc3[nH]c(C)cc3n2)n1 [Example 25, (S)-5-ethyl-4-(6-(2-methyl-1H-pyrrolo[3,2-b]pyridin-5-yl)-4-(4-(methylsulfonyl)tetrahydro-2H-pyran-4-yl)pyridin-2-yl)morpholin-3-one]	20 to 3160 nM	
CC[C@H]1COCC(=O)N1c1cc(C2(S(C)(=O)=O)CCOCC2)cc(-c2ccc3[nH]c(CO)cc3n2)n1 [Example 26]	20 to 3160 nM	
CNCc1cc2nc(-c3cc(CS(C)(=O)=O)cc(N4CCO[C@H](C)[C@H]4C)n3)ccc2[nH]1 [Example 8, 1-(5-(6-((2R,3R)-2,3-dimethylmorpholino)-4-((methylsulfonyl)methyl)pyridin-2-yl)-1Hpyrrolo[3,2-b]pyridin-2-yl)-Nmethylmethanamine]	20 to 3160 nM	
CCc1cc2nc(-c3nc(CS(C)(=O)=O)cc(N4C(=O)COC[C@@H]4CC)n3)ccc2[nH]1 [Example 15, (5S)-5-ethyl-4-(2-{2-ethyl-1H-pyrrolo[3,2-b]pyridin-5-yl}-6-(methanesulfonylmethyl)pyrimidin-4-yl)morpholin-3-one]	20 to 3160 nM	158 nM
CC[C@H]1COCCN1c1cc(C2(S(C)(=O)=O)CCOCC2)nc(-c2ccc3[nH]c(C)cc3n2)n1 [Example 13, (3S)-3-ethyl-4-[6-(4-methanesulfonyloxan-4-yl)-2-{2-methyl-1H-pyrrolo[3,2-b]pyridin-5-yl}pyrimidin-4-yl]morpholine]	20 to 3160 nM	
CC[C@H]1COCCN1c1cc(CS(N)(=O)=O)cc(-c2ccc3[nH]c(C)cc3n2)n1 [Example 23, (S)-(2-(3-ethylmorpholino)-6-(2-methyl-1H-pyrrolo[3,2-b]pyridin-5-yl)pyridin-4-yl)methanesulfonamide]	20 to 3160 nM	
CC[C@H]1COCCN1c1cc(CS(=O)(=O)NC)nc(-c2ccc3[nH]c(CO)cc3n2)n1 [Example 10, 1-{6-[(3S)-3-ethylmorpholin-4-yl]-2-[2-(hydroxymethyl)-1H-pyrrolo[3,2-b]pyridin-5-yl]pyrimidin-4-yl}-N-methylmethanesulfonamide]	20 to 3160 nM	
CC[C@H]1COCCN1c1cc(CS(C)(=O)=O)nc(-c2ccc3[nH]c(CNC)cc3n2)n1 [Example 1, [(5-{4-[(3S)-3-ethylmorpholin-4-yl]-6-(methanesulfonylmethyl)pyrimidin-2-yl}-1H-pyrrolo[3,2-b]pyridin-2-yl)methyl](methyl)amine]	20 to 3160 nM	251 nM
CC[C@H]1COCC(=O)N1c1cc(CS(C)(=O)=O)cc(-c2ccc3[nH]c(CO)cc3n2)n1 [Example 27]	20 to 3160 nM	
CC[C@H]1COCCN1c1cc(CS(=O)(=O)N(C)C)nc(-c2ccc3[nH]c(CNC)cc3n2)n1 [Example 16, 1-{6-[(3S)-3-ethylmorpholin-4-yl]-2-{2-[(methylamino)methyl]-1H-pyrrolo[3,2-b]pyridin-5-yl}pyrimidin-4-yl}-N,N-dimethylmethanesulfonamide]	20 to 3160 nM	100 nM
CC[C@H]1COCCN1c1cc(CS(N)(=O)=O)nc(-c2ccc3[nH]c(CNC)cc3n2)n1 [Example 6, {6-[(3S)-3-ethylmorpholin-4-yl]-2-{2-[(methylamino)methyl]-1H-pyrrolo[3,2-b]pyridin-5-yl}pyrimidin-4-yl}methanesulfonamide]	20 to 3160 nM	
CC[C@H]1COCCN1c1cc(C2(S(C)(=O)=O)CCNCC2)cc(-c2ccc3[nH]c(C)cc3n2)n1 [Example 18, (S)-3-ethyl-4-(6-(2-methyl-1H-pyrrolo[3,2-b]pyridin-5-yl)-4-(4-(methylsulfonyl)piperidin-4-yl)pyridin-2-yl)morpholine]	20 to 316 nM	158 nM
CC[C@H]1COCC(=O)N1c1cc(CS(C)(=O)=O)cc(-c2ccc3[nH]c(C)cc3n2)n1 [Example 24, (S)-5-ethyl-4-(6-(2-methyl-1H-pyrrolo[3,2-b]pyridin-5-yl)-4-((methylsulfonyl)methyl)pyridin-2-yl)morpholin-3-one]	20 to 3160 nM	126 nM
CC[C@H]1COCCN1c1cc(CS(C)(=O)=O)nc(-c2ccc3[nH]c(CO)cc3n2)n1 [Example 2, (S)-(5-(4-(3-ethylmorpholino)-6-((methylsulfonyl)methyl)pyrimidin-2-yl)-1H-pyrrolo[3,2-b]pyridin-2-yl)methanol]	20 to 3160 nM	
CC[C@H]1COCCN1c1cc(CS(=O)(=O)N(C)C)nc(-c2ccc3[nH]c(CO)cc3n2)n1 [Example 9, 1-{6-[(3S)-3-ethylmorpholin-4-yl]-2-[2-(hydroxymethyl)-1H-pyrrolo[3,2-b]pyridin-5-yl]pyrimidin-4-yl}-N,N-dimethylmethanesulfonamide]	20 to 3160 nM	
CC[C@H]1COCC(=O)N1c1cc(CS(C)(=O)=O)nc(-c2ccc3[nH]c(C)cc3n2)n1 [Example 14, (5S)-5-ethyl-4-[6-(methanesulfonylmethyl)-2-{2-methyl-1H-pyrrolo[3,2-b]pyridin-5-yl}pyrimidin-4-yl]morpholin-3-one]	20 to 3160 nM	25.1 nM
